According to patent US10533010B2, “Substituted indole Mcl-1 inhibitors” (Vanderbilt University, priority 2014, dated 2020):
pIC50, pKi: −log10 of the molar value. Read-outs that look alike come from different tables or passages of the source.

Experiments:
[1] = biological target: recombinant Mcl-1 (residues 172-327) (Homo sapiens (Human), UniProt Q07820); assay: Fluorescence polarization anisotropy competition assay (FITC-Bak or FITC-Bim BH3 peptide) with Mcl-1; assay type: binding; details: for Ki: Table 2, Ki bins given in nM, FITC-Bak or FITC-Bim peptide competition, Ki converted from IC50, read-out: Ki for Inhibition of Mcl-1; for pKi: Table 3, selectivity panel, read-out: Mcl-1 Ki
Chain of recombinant Mcl-1 (residues 172-327) (Q07820 172-327): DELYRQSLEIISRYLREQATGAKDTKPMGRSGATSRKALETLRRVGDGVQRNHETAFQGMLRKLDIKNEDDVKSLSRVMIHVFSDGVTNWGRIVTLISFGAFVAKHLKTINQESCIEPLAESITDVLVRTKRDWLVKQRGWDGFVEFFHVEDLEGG

[2] = biological target: Bcl-xL (residues 1-209, loop 45-86 deleted) (Homo sapiens (Human), UniProt Q07817, DEL45-86); assay: Fluorescence polarization anisotropy competition selectivity assay (FITC-Bak peptide) with Bcl-xL; assay type: binding; details: Table 3; 4 nM Bcl-xL, 10 nM FITC-Bak
Chain of Bcl-xL (residues 1-209, loop 45-86 deleted) (Q07817 other isoform, or with tags, fused parts or gaps del 45-86): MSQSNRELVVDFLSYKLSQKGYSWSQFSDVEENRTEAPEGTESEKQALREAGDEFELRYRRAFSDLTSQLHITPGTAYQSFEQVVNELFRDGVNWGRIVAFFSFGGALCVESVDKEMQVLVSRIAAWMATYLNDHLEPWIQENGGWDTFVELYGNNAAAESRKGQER
Protocol: (§1) Compound affinity was measured using a fluorescence polarization anisotropy competition assay. Anisotropy measurements were carried out in 384-well, black, flat-bottom plates (Greiner Bio-one, Monroe, N.C., USA). The assay was run using either a fluorescein isothiocyanate-labeled BH3 peptide derived from Bak (FITC-AHx-[…]-NH2) or a fluorescein isothiocyanate-labeled BH3 peptide derived from Bim (FITC-AHx-[…]-NH2) that were purchased from GenScript (Piscataway, N.J.) at >95% purity and used without further purification. 10 nM FITC-Bak peptide and 15 nM recombinant Mcl-1 (residues 172-327) were added to assay buffer (3 mM dithiothreitol, 50 mM NaCl, 20 mM Tris, pH 7.5). The Bim based assay was run with 1 nM FITC-Bim peptide and 1.5 nM recombinant Mcl-1 (residues 172-327) added to assay buffer (20 mM TRIS pH 7.5, 50 mM NaCl, 3 mM DTT, 0.01% CHAPS). For selectivity assays, 40 nM Bcl-2 (residues 1-207^A96T,G110R, Δ35-91, replaced with Bcl-xL35-50) or 4 nM Bcl-xL (residues 1-209, loop 45-86 deleted) were incubated with 10 nM FITC-Bak in assay buffer.
(§2) Compounds are diluted in DMSO in a 10-point, 3-fold serial dilution scheme. For the FITC-BAK assay 2.5 uL compound is added to 47.5 μL of assay buffer containing FITC-Bak and protein, for a final DMSO concentration of 5% and a top concentration of 20 μM. […] […]. The plate was mixed and incubated for 90 minutes at room temperature. Anisotropy is measured at excitation wavelength 480 nm and emission wavelength 535 nm using an EnVision Multi-label plate reader (PerkinElmer, Wellesley, Mass., USA) or a BioTek Cytation 3 (BioTek, Winooski, Vt., USA). […] IC50 is converted to a binding dissociation constant (Ki value) according to the formula of Wang Z. FEBS Lett (1996) 3, 245.

[3] = biological target: Bcl-2 (residues 1-207 A96T,G110R, Δ35-91, replaced with Bcl-xL35-50) (Homo sapiens, UniProt P10415, A37E/DEL42-87/G36T/INS34DVEEN/P40E/P88T/P90S/P91E/V35R/V89E); assay: Fluorescence polarization anisotropy competition selectivity assay (FITC-Bak peptide) with Bcl-2; assay type: binding; details: Table 3; 40 nM Bcl-2, 10 nM FITC-Bak
Protocol: as §1, §2

[4] = tested on: ALMC-1; assay: Cellular viability (Cell TiterGlo) ALMC-1; assay type: cell-based; details: Homo sapiens, ALMC1; ALMC-1 cells, 72 hours, 10% FBS; read-out: IC50 on cellular proliferation, ALMC-1
Protocol: (§3) Human cancer cell lines ALMC-1, ALMC-2, K562, H929, and OPM-2 were cultured in media supplemented with 10% fetal bovine serum (FBS). To evaluate compound effect on cellular proliferation, cells were plated at 1,000 cells/well in 96-well tissue culture plates in a total volume of 90 μL medium supplemented with 10% FBS (Sigma, Saint Louis, Mo.). 24 hours later, 10 μL of compound (in a 2-fold serial dilution) is added to the cells for a top concentration of 50 μM and a final DMSO concentration <1%. After 72 hours, 50 μL of Cell TiterGlo (Promega, Madison, Wis., USA) reagent is added to each well and plates are incubated at room temperature, in the dark, for 30 minutes. Luminescence is measured on a BioTek Cytation 3. Luminescence values are imported into a template in XLFit (Guildford, Surrey, UK) that uses a four-parameter fit to generate an IC50 value for each compound dilution series on the plate.

[5] = tested on: ALMC-2; assay: Cellular viability (Cell TiterGlo) ALMC-2; assay type: cell-based; details: Homo sapiens, ALMC2; ALMC-2 cells, 72 hours, 10% FBS; read-out: IC50 on cellular proliferation, ALMC-2
Protocol: as §3

[6] = tested on: H929; assay: Cellular viability (Cell TiterGlo) H929; assay type: cell-based; details: Homo sapiens, NCI-H929; H929 cells, 72 hours, 10% FBS; read-out: IC50 on cellular proliferation, H929
Protocol: as §3

[7] = tested on: OPM-2; assay: Cellular viability (Cell TiterGlo) OPM-2; assay type: cell-based; details: Homo sapiens; OPM-2 cells, 72 hours, 10% FBS; read-out: IC50 on cellular proliferation, OPM-2
Protocol: as §3

[8] = tested on: K562; assay: Cellular viability (Cell TiterGlo) K562; assay type: cell-based; details: Homo sapiens; K562 cells, 72 hours, 10% FBS; read-out: IC50 on cellular proliferation, K562
Protocol: as §3

SMILES	Ki [1] [nM]	pKi [2]	pKi [3]	further results
Cc1cc(OCCCc2c(C(=O)NCc3cc(C(=O)O)n(C)c3)[nH]c3c(-c4c(C)nn(C)c4C)cccc23)cc(C)c1Cl [I-74, 4-((3-(3-(4-chloro-3,5-dimethylphenoxy)propyl)-7-(1,3,5-trimethyl-1H-pyrazol-4-yl)-1H-indole-2-carboxamido)methyl)-1-methyl-1H-pyrrole-2-carboxylic acid]	[…]	< 4.00	5.45	pKi [1]: […]
Cc1cc(OCCCc2c(C(=O)Nc3ccc(C(=O)O)cc3)[nH]c3c(-c4c(C)nn(CCN5CCOCC5)c4C)c(Cl)ccc23)cc(C)c1Cl [I-190, 4-(6-chloro-3-(3-(4-chloro-3,5-dimethylphenoxy)propyl)-7-(3,5-dimethyl-1-(2-morpholinoethyl)-1H-pyrazol-4-yl)-1H-indole-2-carboxamido)benzoic acid]	[…]	4.34	5.79	pKi [1]: […]
Cc1cc(OCCCc2c(C(=O)N(C)c3cccc(C(=O)O)c3)n(C)c3c(-c4c(C)nn(C)c4C)c(Cl)ccc23)cc(C)c1Cl [I-189, 3-(6-chloro-3-(3-(4-chloro-3,5-dimethylphenoxy)propyl)-N,1-dimethyl-7-(1,3,5-trimethyl-1H-pyrazol-4-yl)-1H-indole-2-carboxamido)benzoic acid]	< 50	5.33	5.86	pKi [1]: > 8.15
Cc1cc(OCCCc2c3n(c4c(-c5c(C)nn(C)c5C)c(Cl)ccc24)CCCN(c2cccc(C(=O)O)c2)C3=O)cc(C)c1Cl [I-177, 3-(8-chloro-11-(3-(4-chloro-3,5-dimethylphenoxy)propyl)-1-oxo-7-(1,3,5-trimethyl-1H-pyrazol-4-yl)-4,5-dihydro-1H-[1,4]diazepino[1,2-a]indol-2(3H)-yl)benzoic acid]			5.72	
Cc1cc(OCCCc2c3n(c4c(-c5c(C)nn(C)c5C)c(Cl)ccc24)CCCN(c2cccc(CC(=O)O)c2)C3=O)cc(C)c1Cl [I-236, 2-(3-(8-chloro-11-(3-(4-chloro-3,5-dimethylphenoxy)propyl)-1-oxo-7-(1,3,5-trimethyl-1H-pyrazol-4-yl)-4,5-dihydro-H-[1,4]diazepino[1,2-a]indol-2(3H)-yl)phenyl)acetic acid]	< 50			pIC50 [4]: 5.16; pIC50 [5]: 4.91; pIC50 [6]: 5.14; pIC50 [7]: 5.14; pIC50 [8]: 4.60
Cc1cc(OCCCc2c3n(c4c(-c5c(C)nn(C)c5C)c(Cl)ccc24)CCCN(Cc2cccc(C(=O)O)c2)C3=O)cc(C)c1Cl [I-80, 3-((8-chloro-11-(3-(4-chloro-3,5-dimethylphenoxy)propyl)-1-oxo-7-(1,3,5-trimethyl-1H-pyrazol-4-yl)-4,5-dihydro-1H-[1,4]diazepino[1,2-a]indol-2(3H)-yl)methyl)benzoic acid]		5.17	5.63	
Cc1cc(OCCCc2c(C(=O)Nc3cc(C(=O)O)ccn3)[nH]c3c(-c4c(C)nn(C)c4C)c(Cl)ccc23)cc(C)c1Cl [I-183, 2-(6-chloro-3-(3-(4-chloro-3,5-dimethylphenoxy)propyl)-7-(1,3,5-trimethyl-1H-pyrazol-4-yl)-1H-indole-2-carboxamido)isonicotinic acid]		4.84	5.54	
Cc1cc(OCCCc2c(C(=O)NCc3c[nH]c(C(=O)O)c3)[nH]c3c(-c4c(C)nn(C)c4C)cccc23)cc(C)c1Cl [I-71, 4-((3-(3-(4-chloro-3,5-dimethylphenoxy)propyl)-7-(1,3,5-trimethyl-1H-pyrazol-4-yl)-1H-indole-2-carboxamido)methyl)-1H-pyrrole-2-carboxylic acid]		4.86	5.23	
Cc1cc(OCCCc2c(C(=O)Nc3cncc(C(=O)O)c3)[nH]c3c(-c4c(C)nn(C)c4C)c(Cl)ccc23)cc(C)c1Cl [I-181, 5-(6-chloro-3-(3-(4-chloro-3,5-dimethylphenoxy)propyl)-7-(1,3,5-trimethyl-1H-pyrazol-4-yl)-1H-indole-2-carboxamido)nicotinic acid]		4.21	5.49	
Cc1cc(OCCCc2c3n(c4c(-c5c(C)nn(C)c5C)cccc24)CCCN(Cc2cccc(C(=O)O)c2)C3=O)cc(C)c1Cl [I-32, 3-((11-(3-(4-chloro-3,5-dimethylphenoxy)propyl)-1-oxo-7-(1,3,5-trimethyl-1H-pyrazol-4-yl)-4,5-dihydro-1H-[1,4]diazepino[1,2-a]indol-2(3H)-yl)methyl)benzoic acid]		4.87	5.42	
Cc1cc(C(=O)O)cc(N2CCCn3c(c(CCCOc4cc(C)c(Cl)c(C)c4)c4ccc(Cl)c(-c5c(C)nn(C)c5C)c43)C2=O)c1 [I-220, 3-(8-chloro-11-(3-(4-chloro-3,5-dimethylphenoxy)propyl)-1-oxo-7-(1,3,5-trimethyl-1H-pyrazol-4-yl)-4,5-dihydro-1H-[1,4]diazepino[1,2-a]indol-2(3H)-yl)-5-methylbenzoic acid]	< 50			pIC50 [6]: 5.31; pIC50 [8]: 4.83
Cc1cc(OCCCc2c(C(=O)Nc3cccc(C(=O)O)c3)[nH]c3c(-c4c(C)nn(C)c4C)c(Cl)ccc23)cc(C)c1Cl [I-39, 3-(6-chloro-3-(3-(4-chloro-3,5-dimethylphenoxy)propyl)-7-(1,3,5-trimethyl-1H-pyrazol-4-yl)-1H-indole-2-carboxamido)benzoic acid]		5.34	5.81	
Cc1cc(OCCCc2c(C(=O)Nc3cccc(C(=O)O)c3)n(C)c3c(-c4c(C)nn(C)c4C)c(Cl)ccc23)cc(C)c1Cl [I-188, 3-(6-chloro-3-(3-(4-chloro-3,5-dimethylphenoxy)propyl)-1-methyl-7-(1,3,5-trimethyl-1H-pyrazol-4-yl)-1H-indole-2-carboxamido)benzoic acid]		4.81	5.28	
Cc1cc(OCCCc2c(C(=O)NCc3cc(C(=O)O)ccn3)[nH]c3c(-c4c(C)nn(C)c4C)cccc23)cc(C)c1Cl [I-280, 2-((3-(3-(4-chloro-3,5-dimethylphenoxy)propyl)-7-(1,3,5-trimethyl-1H-pyrazol-4-yl)-1H-indole-2-carboxamido)methyl)isonicotinic acid]		4.57	5.10	
Cc1cc(OCCCc2c3n(c4c(-c5c(C)nn(C)c5C)cccc24)CCN(Cc2cccc(C(=O)O)c2)C3=O)cc(C)c1Cl [I-31, 3-((10-(3-(4-chloro-3,5-dimethylphenoxy)propyl)-1-oxo-6-(1,3,5-trimethyl-1H-pyrazol-4-yl)-3,4-dihydropyrazino[1,2-a]indol-2(1H)-yl)methyl)benzoic acid]	[…]	5.19	5.66	pIC50 [4]: 4.88; pIC50 [5]: 4.47; pIC50 [6]: 4.82; pKi [1]: […]; pIC50 [7]: 4.79; pIC50 [8]: 4.40
